Tests used:
HCT-116 = experiment: Antiproliferative activity against human HCT-116 cells assessed as inhibition of cell proliferation measured after 48 hrs by MTT assay; type: functional, cell-based; conditions: HCT-116, 48 h
MDA-MB-231 = experiment: Antiproliferative activity against human MDA-MB-231 cells assessed as inhibition of cell proliferation measured after 48 hrs by MTT assay; type: functional, cell-based; conditions: MDA-MB-231, 48 h
HT-29 = experiment: Antiproliferative activity against human HT-29 cells assessed as inhibition of cell proliferation measured after 48 hrs by MTT assay; type: functional, cell-based; conditions: HT-29, 48 h
HeLa [1] = experiment: Antiproliferative activity against human HeLa cells assessed as inhibition of cell proliferation measured after 48 hrs by MTT assay; type: functional, cell-based
HEK293 = experiment: Cytotoxicity against HEK293 cells assessed as inhibition of cell proliferation measured after 48 hrs by MTT assay; type: cell-based; conditions: Homo sapiens, HEK293, 48 h
HeLa [2] = experiment: Cell cycle arrest in human HeLa cells assessed as accumulation at S phase at 6 uM measured after 24 hrs by flow cytometry analysis (reference value: 17.44 %); type: functional
HeLa [3] = experiment: Cell cycle arrest in human HeLa cells assessed as accumulation at S phase at 3 uM measured after 24 hrs by flow cytometry analysis (reference value: 17.44 %); type: functional
HeLa [4] = experiment: Cell cycle arrest in human HeLa cells assessed as accumulation at G2/M phase at 3 uM measured after 24 hrs by flow cytometry analysis (reference value: 15.22 %); type: functional
HeLa [5] = experiment: Cell cycle arrest in human HeLa cells assessed as accumulation at G2/M phase measured after 24 hrs by flow cytometry analysis; type: functional, cell-based; conditions: dose 3-12 µM
HeLa [6] = experiment: Cell cycle arrest in human HeLa cells assessed as accumulation at G1/G0 phase at 6 uM measured after 24 hrs by flow cytometry analysis (reference value: 67.34 %); type: functional
HeLa [7] = experiment: Cell cycle arrest in human HeLa cells assessed as accumulation at G2/M phase at 6 uM measured after 24 hrs by flow cytometry analysis (reference value: 15.22 %); type: functional
HeLa [8] = experiment: Cell cycle arrest in human HeLa cells assessed as accumulation at G2/M phase at 12 uM measured after 24 hrs by flow cytometry analysis (reference value: 15.22 %); type: functional
HeLa [9] = experiment: Cell cycle arrest in human HeLa cells assessed as accumulation at G1/G0 phase at 3 uM measured after 24 hrs by flow cytometry analysis (reference value: 67.34 %); type: functional
HeLa [10] = experiment: Cell cycle arrest in human HeLa cells assessed as accumulation at S phase at 12 uM measured after 24 hrs by flow cytometry analysis (reference value: 17.44 %); type: functional
HeLa [11] = experiment: Cell cycle arrest in human HeLa cells assessed as accumulation at G1/G0 phase at 12 uM measured after 24 hrs by flow cytometry analysis (reference value: 67.34 %); type: functional

Row | SMILES | IC50 (HCT-116) | IC50 (MDA-MB-231) | IC50 (HT-29) | IC50 (HeLa [1]) | IC50 (HEK293) | other results
1 | CC1CCN(c2ccc(Nc3ncc4c(n3)N(C3CCCC3)CC(=O)N4C)cc2)CC1 | 25.3 µM | > 30 µM | > 30 µM | > 30 µM |  | 
2 | CN1CCN(c2ccc(Nc3ncc4c(n3)N(C3CCCC3)CC(=O)N4)nc2)CC1 | > 30 µM | > 30 µM | 26.5 µM | > 30 µM |  | 
3 | CCN1C(=O)CN(C2CCCC2)c2nc(Nc3ccc(N4CCC(C)CC4)cn3)ncc21 | 19.1 µM | > 30 µM | > 30 µM | > 30 µM |  | 
4 | CN1C(=O)CN(C2CCCC2)c2nc(Nc3ccc(N4CCOCC4)cn3)ncc21 | 23.6 µM | > 30 µM | 28.4 µM | > 30 µM |  | 
5 | CCN1C(=O)CN(C2CCCC2)c2nc(Nc3ccc(N4CCN(C)CC4)cn3)ncc21 | 16.4 µM | 24.1 µM | 7.84 µM | 29.1 µM | > 30 µM | 
6 | O=C1CN(Cc2ccccc2)c2nc(NCCc3ccccc3)ncc2N1 | 25.4 µM |  | > 30 µM | 20.7 µM | > 30 µM | 
7 | O=C1CN(C2CCCC2)c2nc(Nc3ccc(N4CCCCC4)cn3)ncc2N1 | > 30 µM | > 30 µM | 21.1 µM | > 30 µM |  | 
8 | CC1CCN(c2ccc(Nc3ncc4c(n3)N(C3CCCC3)CC(=O)N4C)nc2)CC1 | > 30 µM | > 30 µM | 11.3 µM | > 30 µM |  | 
9 | CCN1C(=O)CN(C2CCCC2)c2nc(Nc3ccc(N4CCCCC4)cn3)ncc21 | 14.5 µM | 28.2 µM | 22 µM | 17.6 µM | > 30 µM | 
10 | CN1C(=O)CN(C2CCCC2)c2nc(Nc3ccc(N4CCOCC4)cc3)ncc21 | > 30 µM | > 30 µM | 20.1 µM | > 30 µM |  | 
11 | CC1CCN(c2ccc(Nc3ncc4c(n3)N(C3CCCC3)CC(=O)N4)nc2)CC1 | > 30 µM | > 30 µM | > 30 µM | > 30 µM |  | 
12 | O=C1CN(C2CCCC2)c2nc(Nc3ccc(N4CCNCC4)cn3)ncc2N1 | > 30 µM | > 30 µM | > 30 µM | > 30 µM |  | 
13 | COc1ccc(Nc2ncc3c(n2)N(C2CCCC2)CC(=O)N3C)cc1 | 12.3 µM | > 30 µM |  |  |  | 
14 | CCN1C(=O)CN(C2CCCC2)c2nc(Nc3ccc(N4CCOCC4)cn3)ncc21 | > 30 µM | > 30 µM | 27.6 µM | > 30 µM |  | 
15 | COc1ccc(Nc2ncc3c(n2)N(C2CCCC2)CC(=O)N3)cc1 | > 30 µM | > 30 µM |  |  |  | 
16 | O=C1CN(C2CCCC2)c2nc(Nc3ccc(N4CCOCC4)cn3)ncc2N1 | 25.3 µM | > 30 µM | 22 µM | > 30 µM |  | 

The next lines start with results.

Row | IC50 (HCT-116) | IC50 (MDA-MB-231) | IC50 (HT-29) | IC50 (HeLa [1]) | SMILES | IC50 (HEK293) | other results
17 | 9.73 µM | 23.7 µM | 11.1 µM | 13.1 µM | CN1CCN(c2ccc(Nc3ncc4c(n3)N(C3CCCC3)CC(=O)N4C)nc2)CC1 |  | 
18 | 5.47 µM | > 30 µM | > 30 µM | > 30 µM | CCN1C(=O)CN(C2CCCC2)c2nc(Nc3ccc(N4CCCCC4)cc3)ncc21 | > 30 µM | 
19 | 9.05 µM | > 30 µM | > 30 µM | > 30 µM | CCN1C(=O)CN(C2CCCC2)c2nc(Nc3ccc(N4CCOCC4)cc3)ncc21 |  | 
20 | 4.44 µM | 25 µM | 5.54 µM | > 30 µM | O=C1CN(C2CCCC2)c2nc(Nc3ccc(N4CCCCC4)cc3)ncc2N1 | 25.1 µM | 
21 | 7.11 µM | 6.21 µM | 3.56 µM | 13.3 µM | CC(=O)c1c(C)c2cnc(Nc3ccc(N4CCNCC4)cn3)nc2n(C2CCCC2)c1=O [PALBOCICLIB] |  | 
22 | 11 µM | > 30 µM |  |  | CCN1C(=O)CN(C2CCCC2)c2nc(Nc3ccc(OC)cc3)ncc21 |  | 
23 | 8.43 µM | 22.7 µM | 5.04 µM | > 30 µM | CC1CCN(c2ccc(Nc3ncc4c(n3)N(C3CCCC3)CC(=O)N4)cc2)CC1 |  | 
24 | 5.4 µM | > 30 µM | 24.4 µM | > 30 µM | CCN1C(=O)CN(C2CCCC2)c2nc(Nc3ccc(N4CCC(C)CC4)cc3)ncc21 | > 30 µM | 
25 | 3.89 µM | 29.3 µM | 12.5 µM | > 30 µM | CN1C(=O)CN(C2CCCC2)c2nc(Nc3ccc(N4CCCCC4)cn3)ncc21 | > 30 µM | 
26 | 6.1 µM | 21.2 µM | 9.86 µM | 16.9 µM | CN1C(=O)CN(C2CCCC2)c2nc(Nc3ccc(N4CCCCC4)cc3)ncc21 | 25.3 µM | 
27 | 12.2 µM | 26.1 µM | 5.22 µM | 21.3 µM | CN1CCN(c2ccc(Nc3ncc4c(n3)N(C3CCCC3)CC(=O)N4)cc2)CC1 | > 30 µM | 
28 | 3.29 µM | 10.3 µM | 7.56 µM | 6.75 µM | CN1CCN(c2ccc(Nc3ncc4c(n3)N(C3CCCC3)CC(=O)N4C)cc2)CC1 | 12.4 µM | Activity (HeLa [2]): 3.9%; Activity (HeLa [3]): 14.6%; Activity (HeLa [4]): 20.97%; Activity (HeLa [5]): Dose-dependent effect; Activity (HeLa [6]): 47.11%; Activity (HeLa [7]): 48.98%; Activity (HeLa [8]): 88.97%; Activity (HeLa [9]): 64.43%; Activity (HeLa [10]): 0%; Activity (HeLa [11]): 11.03%
29 | 7.96 µM | 26.2 µM | 10.3 µM | 28.3 µM | CCN1C(=O)CN(C2CCCC2)c2nc(Nc3ccc(N4CCN(C)CC4)cc3)ncc21 | > 30 µM | 
30 | 9.5 µM | 25.1 µM | 22.8 µM | 26 µM | O=C1CN(C2CCCC2)c2nc(Nc3ccc(N4CCOCC4)cc3)ncc2N1 | > 30 µM | 
